The target in the test is T1, NKCC1 (Homo sapiens, UniProt P55011).
T1 construct: endogenous in cells; host or cells: native HEK293 cells
T1 sequence (P55011 1-1212): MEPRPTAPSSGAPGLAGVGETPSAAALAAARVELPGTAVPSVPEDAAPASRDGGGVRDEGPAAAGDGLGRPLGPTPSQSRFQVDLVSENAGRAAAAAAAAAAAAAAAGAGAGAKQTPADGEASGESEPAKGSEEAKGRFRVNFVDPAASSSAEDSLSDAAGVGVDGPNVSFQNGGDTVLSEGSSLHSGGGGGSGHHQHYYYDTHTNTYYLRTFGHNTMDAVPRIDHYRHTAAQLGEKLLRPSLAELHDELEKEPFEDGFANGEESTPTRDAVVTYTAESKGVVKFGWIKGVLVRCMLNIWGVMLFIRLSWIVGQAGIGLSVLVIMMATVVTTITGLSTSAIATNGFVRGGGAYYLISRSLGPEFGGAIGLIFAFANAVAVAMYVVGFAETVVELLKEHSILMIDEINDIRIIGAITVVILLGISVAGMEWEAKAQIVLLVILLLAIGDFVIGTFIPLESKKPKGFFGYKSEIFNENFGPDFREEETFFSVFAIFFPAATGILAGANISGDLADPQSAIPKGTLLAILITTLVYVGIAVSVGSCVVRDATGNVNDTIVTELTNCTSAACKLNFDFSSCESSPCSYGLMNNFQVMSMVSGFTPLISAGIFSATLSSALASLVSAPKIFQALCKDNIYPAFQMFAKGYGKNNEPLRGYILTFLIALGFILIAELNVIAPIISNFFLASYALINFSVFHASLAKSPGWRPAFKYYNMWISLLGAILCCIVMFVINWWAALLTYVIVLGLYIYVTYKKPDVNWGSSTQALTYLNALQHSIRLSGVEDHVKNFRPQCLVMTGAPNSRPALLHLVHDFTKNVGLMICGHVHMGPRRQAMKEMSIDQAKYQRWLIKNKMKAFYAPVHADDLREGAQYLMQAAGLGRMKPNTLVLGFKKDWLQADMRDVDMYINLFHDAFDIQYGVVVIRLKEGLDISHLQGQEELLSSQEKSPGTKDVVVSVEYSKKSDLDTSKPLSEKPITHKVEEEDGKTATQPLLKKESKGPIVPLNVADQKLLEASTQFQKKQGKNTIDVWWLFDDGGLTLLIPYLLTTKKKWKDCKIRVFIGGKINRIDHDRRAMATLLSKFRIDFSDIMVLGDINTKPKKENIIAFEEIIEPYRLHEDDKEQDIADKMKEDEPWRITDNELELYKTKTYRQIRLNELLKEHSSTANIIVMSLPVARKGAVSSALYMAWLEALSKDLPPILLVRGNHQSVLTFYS
Kind of test: NKCC1-mediated K+ influx (83Rb tracer uptake) in native HEK293 cells, hypertonic saline, 100 μM ouabain. The test is classed as cell-based. Particulars: HEK293, no drug = 1000, 20 μM bumetanide = 0; for inhibition at 2 µM: read-out: NKCC1 mediated flux inhibition at 2 μM (%); for inhibition at 20 µM: read-out: NKCC1 mediated flux inhibition at 20 μM (%). An outline of the steps: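 Native cells in slightly hypertonic saline with 100 μM ouabain; 15 min preincubation then 15 min 83Rb uptake (0.25 μCi/mL), scintillation counting normalized to protein. Compounds at 2 μM and 20 μM; flux scaled 1000 (no drug) to 0 (20 μM bumetanide), triplicate dishes.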

Molecules are shown by their SMILES.

Turning to `CCCCNc1cc(C(=O)O)cc(S(=N)(=O)NC)c1Oc1ccccc1` (stereo not shown) [Compound 51, 3-(butylamino)-5-(methylaminosulfonimidoyl)-4-phenoxy-benzoic acid], the inhibition at 2 µM lay in the range of 50 to 75% and the inhibition at 20 µM was not below 75%.
For `CCCCNc1cc(C(=O)O)cc(S(=N)(=O)Nc2ccccc2)c1Oc1ccccc1` (stereo not shown) [Compound 57, 3-(anilinosulfonimidoyl)-5-(butylamino)-4-phenoxy-benzoic acid], in that order: 50 to 75% and not below 75%.

Broadly, the inhibition is the change of the read-out against control, counted positive when it falls.

The values are drawn from US20260374782A1, “NEW COMPOUNDS, PROCESSES FOR PREPARING THE SAME AND THEIR USE AS DRUGS” (B&A ONCOMEDICAL, priority 2022, published 2026).
